Patent publication US20100173968A1, “SUB-TYPE SELECTIVE AZABICYCLOALKANE DERIVATIVES” (TARGACEPT, INC., priority 2007, published 2010)
Where a name gives a salt, the structure may show the parent alone. Read-outs that look alike come from different tables or passages of the source.

Columns and labels:
[1] = target: Human α4β2 (Homo sapiens, UniProt P17787+P43681); assay: Binding at human α4β2 (Ki); method not described
[2] = target: α7 nAChR Subtype (Rattus norvegicus, UniProt Q05941); assay: Radioligand binding at α7 nAChR subtype, inhibition of [3H]MLA binding, rat hippocampus membranes (HTS at 5 μM, then Ki); settings: for inhibition at 5 µM: read-out: α7 HTS outcome (α7 Ki)
[3] = target: α4β2 nAChR Subtype (Rattus norvegicus, UniProt P09483+P12390); assay: Radioligand binding at α4β2 nAChR subtype, inhibition of [3H]nicotine binding, rat cerebral cortex membranes; settings: [3H]nicotine 5 nM
Method: The [^3H]nicotine (Specific Activity=81.5 Ci/mmol) was obtained from NEN Research Products. The binding of [^3H]nicotine was measured using a 3 h incubation at 4° C. […] Each filter was washed with ice-cold buffer (3×1 mL).
Each concentration was replicated in triplicate.

Chain of α4β2 nAChR Subtype (P09483 31-630): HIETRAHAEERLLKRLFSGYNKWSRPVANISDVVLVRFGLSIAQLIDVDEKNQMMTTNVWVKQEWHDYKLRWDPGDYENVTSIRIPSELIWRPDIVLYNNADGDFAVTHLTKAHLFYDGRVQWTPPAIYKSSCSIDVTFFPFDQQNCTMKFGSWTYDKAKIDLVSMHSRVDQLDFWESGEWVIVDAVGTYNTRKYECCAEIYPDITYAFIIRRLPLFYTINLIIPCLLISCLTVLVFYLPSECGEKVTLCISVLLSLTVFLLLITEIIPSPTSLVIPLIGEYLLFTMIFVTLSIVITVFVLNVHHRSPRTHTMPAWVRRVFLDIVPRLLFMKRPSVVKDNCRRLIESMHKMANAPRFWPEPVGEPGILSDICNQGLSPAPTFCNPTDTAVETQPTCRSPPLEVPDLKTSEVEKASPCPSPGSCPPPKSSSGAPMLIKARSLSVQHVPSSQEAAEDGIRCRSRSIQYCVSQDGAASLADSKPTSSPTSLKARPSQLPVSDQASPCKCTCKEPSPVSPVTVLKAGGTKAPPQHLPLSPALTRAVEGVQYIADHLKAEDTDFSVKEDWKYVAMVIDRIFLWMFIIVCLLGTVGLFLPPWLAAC
Chain of α4β2 nAChR Subtype (P12390 25-500): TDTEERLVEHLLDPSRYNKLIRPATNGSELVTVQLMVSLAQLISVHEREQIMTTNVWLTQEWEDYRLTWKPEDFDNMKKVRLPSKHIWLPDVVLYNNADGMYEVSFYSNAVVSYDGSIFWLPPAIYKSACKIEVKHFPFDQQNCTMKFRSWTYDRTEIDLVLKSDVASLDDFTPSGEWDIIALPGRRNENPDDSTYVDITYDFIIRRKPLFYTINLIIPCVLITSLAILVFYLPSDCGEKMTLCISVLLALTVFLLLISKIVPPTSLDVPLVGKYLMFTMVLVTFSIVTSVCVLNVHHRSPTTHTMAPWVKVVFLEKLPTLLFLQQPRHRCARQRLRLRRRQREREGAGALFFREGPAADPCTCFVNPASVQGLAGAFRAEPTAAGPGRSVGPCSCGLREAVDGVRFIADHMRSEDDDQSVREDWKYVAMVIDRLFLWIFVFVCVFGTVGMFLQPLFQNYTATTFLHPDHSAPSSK
Chain of Human α4β2 (P43681 29-627 limits assumed): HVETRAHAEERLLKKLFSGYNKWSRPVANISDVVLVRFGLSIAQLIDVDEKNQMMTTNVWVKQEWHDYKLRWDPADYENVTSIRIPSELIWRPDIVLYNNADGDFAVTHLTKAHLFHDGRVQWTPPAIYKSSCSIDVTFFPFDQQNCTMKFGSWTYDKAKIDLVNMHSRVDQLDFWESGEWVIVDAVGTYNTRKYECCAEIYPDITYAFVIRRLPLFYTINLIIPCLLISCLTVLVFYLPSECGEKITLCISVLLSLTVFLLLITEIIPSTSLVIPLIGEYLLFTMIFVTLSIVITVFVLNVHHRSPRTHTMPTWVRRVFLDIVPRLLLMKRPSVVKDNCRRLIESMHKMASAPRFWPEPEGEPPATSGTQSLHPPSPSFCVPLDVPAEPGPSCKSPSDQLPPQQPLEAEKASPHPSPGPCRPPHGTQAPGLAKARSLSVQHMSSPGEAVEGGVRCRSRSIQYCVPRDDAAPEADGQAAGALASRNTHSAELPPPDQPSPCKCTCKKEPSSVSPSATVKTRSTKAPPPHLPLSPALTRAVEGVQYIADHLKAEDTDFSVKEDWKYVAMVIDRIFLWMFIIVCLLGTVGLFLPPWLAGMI
Chain of Human α4β2 (P17787 26-502): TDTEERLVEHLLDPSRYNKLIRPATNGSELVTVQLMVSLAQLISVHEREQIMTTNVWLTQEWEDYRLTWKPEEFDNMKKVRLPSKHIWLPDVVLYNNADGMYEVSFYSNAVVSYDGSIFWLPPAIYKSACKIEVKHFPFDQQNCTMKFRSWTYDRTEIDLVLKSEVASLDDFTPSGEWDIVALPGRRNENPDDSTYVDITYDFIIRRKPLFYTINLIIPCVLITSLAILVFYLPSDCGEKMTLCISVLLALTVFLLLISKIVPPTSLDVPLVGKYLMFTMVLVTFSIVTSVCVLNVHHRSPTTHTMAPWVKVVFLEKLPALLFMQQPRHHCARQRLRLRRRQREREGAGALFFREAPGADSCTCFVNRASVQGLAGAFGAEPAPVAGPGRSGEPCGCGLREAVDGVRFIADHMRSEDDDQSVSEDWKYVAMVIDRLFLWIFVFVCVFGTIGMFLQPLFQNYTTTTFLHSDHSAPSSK
Chain of α7 nAChR Subtype (Q05941 23-502): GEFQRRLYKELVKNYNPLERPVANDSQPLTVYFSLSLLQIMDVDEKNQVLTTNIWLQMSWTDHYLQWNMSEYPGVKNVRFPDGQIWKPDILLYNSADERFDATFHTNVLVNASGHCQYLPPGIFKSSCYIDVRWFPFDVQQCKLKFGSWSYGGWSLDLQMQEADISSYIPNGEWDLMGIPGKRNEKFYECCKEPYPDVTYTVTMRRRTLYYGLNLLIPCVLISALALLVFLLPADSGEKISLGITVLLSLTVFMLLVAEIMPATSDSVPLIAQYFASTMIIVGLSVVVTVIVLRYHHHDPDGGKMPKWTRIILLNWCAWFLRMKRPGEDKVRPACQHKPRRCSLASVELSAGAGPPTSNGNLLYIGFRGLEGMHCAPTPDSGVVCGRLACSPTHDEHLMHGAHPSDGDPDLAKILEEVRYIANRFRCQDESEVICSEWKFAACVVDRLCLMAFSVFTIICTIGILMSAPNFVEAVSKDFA

Structure (SMILES) | Ki [1] [nM] | inhibition at 5 µM [2] [%] | Ki ([3]; read-out: Rat α4β2 Ki) [nM] | Ki [2] [nM] | Ki ([3]; Rat α4β2 Ki) [nM] | Ki ([2]; read-out: α7 Ki, [3H]MLA 5 nM, rat hippocampus) [nM]
NCCNC(=O)C1CC2CNCC(C2)C1 (stereo not shown) [N-(2-aminoethyl)-3-azabicyclo[3.3.1]nonane-7-carboxamide] | 52.4 | < 50 | – | – | – | –
CNC(=O)C1C[C@H]2CNC[C@H]2C1 (mixture of isomers) [N-methyl-3-azabicyclo[3.3.0]octane-7-carboxamide] | 185 | – | 81.4 | 27300 | – | –
C/C=C/C(=O)C1C[C@H]2CNC[C@H]2C1 (stereo partly drawn) [trans-1-(3-azabicyclo[3.3.0]oct-7-yl)-2-buten-1-one] | 29.7 | – | – | > 10000 | 15.4 | –
NC(=O)C1CC2CNCC(C2)C1 (stereo not shown) [3-azabicyclo[3.3.1]nonane-7-carboxamide] | 76.9 | – | 40.5 | > 10000 | – | –
O=C(OC1CCCC1)C1C[C@H]2CNC[C@H]2C1 (mixture of isomers) [cyclopentyl 3-azabicyclo[3.3.0]octane-7-carboxylate] | 13.9 | < 50 | 26.6 | – | – | –
CC(C)(C)C(=O)C1C[C@H]2CNC[C@H]2C1 (mixture of isomers) [1-(3-azabicyclo[3.3.0]oct-7-yl)-2,2-dimethyl-1-propanone] | 4.2 | < 50 | 21.4 | – | – | –
O=C(OC1CCOCC1)C1C[C@H]2CNC[C@H]2C1 (mixture of isomers) [tetrahydropyran-4-yl 3-azabicyclo[3.3.0]octane-7-carboxylate] | 146 | < 50 | 68.5 | – | – | –
O=C(OCC1CCOC1)C1C[C@H]2CNC[C@H]2C1 (mixture of isomers) [(tetrahydrofuran-3-yl)methyl 3-azabicyclo[3.3.0]octane-7-carboxylate] | 47.7 | < 50 | 111 | – | – | –
CC(C)NC(=O)C1CC2CNCC(C2)C1 (stereo not shown) [N-isopropyl-3-azabicyclo[3.3.1]nonane-7-carboxamide] | 31 | < 50 | 82 | – | – | –
O=C(Nc1ccc(F)cc1)C1CC2CNCC(C2)C1 (stereo not shown) [N-(4-fluorophenyl)-3-azabicyclo[3.3.1]nonane-7-carboxamide] | 32.1 | < 50 | 92.2 | – | – | –
N#Cc1ccoc1C(=O)[C@H]1C[C@H]2CNC[C@H]2C1 [cis-3-cyanofuran-2-yl(3-azabicyclo[3.3.0]oct-7-yl)methanone] | 25.7 | < 50 | 14 | – | – | –
O=C(Nc1cccnc1)C1CC2CNCC(C2)C1 (stereo not shown) [N-(pyridin-3-yl)-3-azabicyclo[3.3.1]nonane-7-carboxamide] | 46.8 | < 50 | – | – | – | –
O=C(c1ccc(F)cc1)C1C[C@H]2CNC[C@H]2C1 (mixture of isomers) [4-fluorophenyl(3-azabicyclo[3.3.0]oct-7-yl)methanone] | 134 | < 50 | 321 | – | – | –
O=C(C1=CC2CNCC2C1)c1ccco1.O=C(O)C(F)(F)F (stereo not shown) [2-furanyl(3-azabicyclo[3.3.0]oct-6-en-7-yl)methanone trifluoroacetate] | 2 | – | – | – | 8 | –
C=CCNC(=O)C1C[C@H]2CNC[C@H]2C1 (mixture of isomers) [N-allyl-3-azabicyclo[3.3.0]octane-7-carboxamide] | 176 | – | 419 | ≥ 10000 | – | –
O=C(C1C[C@H]2CNC[C@H]2C1)N1CC=CCC1 (mixture of isomers) [(3-azabicyclo[3.3.0]oct-7-yl)(2,3,6-trihydropyridin-1-yl)methanone] | 28.4 | < 50 | 46.3 | – | – | –
CCCCC(=O)[C@@H]1C[C@H]2CNC[C@H]2C1 [trans-1-(3-azabicyclo[3.3.0]oct-7-yl)-1-pentanone] | 186 | < 50 | 108 | – | – | –
CC(C)C(=O)C1CC2CNCC(C2)C1 (stereo not shown) [1-(3-azabicyclo[3.3.1]non-7-yl)-2-methyl-1-propanone] | 78.9 | – | – | > 10000 | – | –
O=C(OCC1CC1)C1C[C@H]2CNC[C@H]2C1 (mixture of isomers) [cyclopropylmethyl 3-azabicyclo[3.3.0]octane-7-carboxylate] | 40.3 | – | – | > 10000 | 62.1 | –
C=CCNC(=O)C1CC2CNCC(C2)C1 (stereo not shown) [N-allyl-3-azabicyclo[3.3.1]nonane-7-carboxamide] | 4.3 | < 50 | 30.6 | – | – | –
O=C(NCc1ccco1)C1C[C@H]2CNC[C@H]2C1 (mixture of isomers) [N-(2-furanylmethyl)-3-azabicyclo[3.3.0]octane-7-carboxamide] | 302 | – | – | 74900 | 272 | –
Cc1ccc(C(=O)C2C[C@H]3CNC[C@H]3C2)o1 (mixture of isomers) [5-methylfuran-2-yl(3-azabicyclo[3.3.0]oct-7-yl)methanone] | 37 | < 50 | 74.3 | – | – | –

Structure (SMILES) | Ki [1] [nM] | inhibition at 5 µM [2] [%] | Ki ([3]; read-out: Rat α4β2 Ki) [nM] | Ki [2] [nM] | Ki ([3]; Rat α4β2 Ki) [nM] | Ki ([2]; read-out: α7 Ki, [3H]MLA 5 nM, rat hippocampus) [nM]
CC(C)(C)NC(=O)C1CC2CNCC(C2)C1 (stereo not shown) [N-tert-butyl-3-azabicyclo[3.3.1]nonane-7-carboxamide] | 7.1 | < 50 | 10.9 | – | – | –
CCNC(=O)C1CC2CNCC(C2)C1 (stereo not shown) [N-ethyl-3-azabicyclo[3.3.1]nonane-7-carboxamide] | 6.4 | < 50 | 13.5 | – | – | –
C#CCN(C)C(=O)C1C[C@H]2CNC[C@H]2C1 (stereo partly shown) [N-methyl-N-prapargyl-3-azabicyclo[3.3.0]octane-7-carboxamide] | 52.5 | – | 139 | ≥ 10000 | – | –
CC(CF)OC(=O)C1C[C@H]2CNC[C@H]2C1 (mixture of isomers) [1-fluoroprop-2-yl 3-azabicyclo[3.3.0]octane-7-carboxylate] | 112 | < 50 | 271 | – | – | –
C#CCC(C)OC(=O)C1C[C@H]2CNC[C@H]2C1 (mixture of isomers) [pent-4-yn-2-yl 3-azabicyclo[3.3.0]octane-7-carboxylate] | 68.7 | < 50 | 144 | – | – | –
CCC(C)C(=O)C1C[C@H]2CNC[C@H]2C1 (mixture of isomers) [1-(3-azabicyclo[3.3.0]oct-7-yl)-2-methyl-1-butanone] | 3.3 | < 50 | 11.1 | – | – | –
CC1COCC(C)N1C(=O)C1=C[C@@H]2CNC[C@@H]2C1 (stereo partly shown) [(3-azabicyclo[3.3.0]oct-6-en-7-yl)(2,6-dimethylmorpholin-1-yl)methanone] | 1710 | < 50 | – | – | – | –
O=C(NCCCF)C1CC2CNCC(C2)C1 (stereo not shown) [N-(3-fluoropropyl)-3-azabicyclo[3.3.1]nonane-7-carboxamide] | 23.2 | < 50 | 44.7 | – | – | –
O=C(NC1CCCC1)C1CC2CNCC(C2)C1 (stereo not shown) [N-cyclopentyl-3-azabicyclo[3.3.1]nonane-7-carboxamide] | 26.8 | < 50 | 102 | – | – | –
O=C(c1ccco1)[C@H]1C[C@H]2CNC[C@H]2C1 [cis-2-furanyl(3-azabicyclo[3.3.0]oct-7-yl)methanone] | 13.2 | < 50 | – | – | 11 | –
O=C(NCCF)C1CC2CNCC(C2)C1 (stereo not shown) [N-(2-fluoroethyl)-3-azabicyclo[3.3.1]nonane-7-carboxamide] | 13.5 | – | – | > 10000 | 122 | –
O=C(CF)C1CC2CNCC2C1 (single isomer, unassigned; isomer 1) [1-(3-azabicyclo[3.3.0]oct-7-yl)-2-fluoro-1-ethanone trifluoroacetate] | 176 | – | 154 | – | – | –
O=C(Nc1ccccc1)C1CC2CNCC(C2)C1 (stereo not shown) [N-phenyl-3-azabicyclo[3.3.1]nonane-7-carboxamide] | 12.7 | < 50 | – | – | – | –
C=CCC(C)OC(=O)C1C[C@H]2CNC[C@H]2C1 (mixture of isomers) [pent-4-en-2-yl 3-azabicyclo[3.3.0]octane-7-carboxylate] | 44.8 | – | – | – | – | > 10000
CN(C)C(=O)[C@H]1C[C@H]2CNC[C@H]2C1 [cis-N,N-dimethyl-3-azabicyclo[3.3.0]octane-7-carboxamide] | 1340 | < 50 | – | – | – | –
O=C(NCC(F)(F)F)C1C[C@H]2CNC[C@H]2C1.O=C(O)C(F)(F)F (mixture of isomers) [N-(2,2,2-trifluoroethyl)-3-azabicyclo[3.3.0]octane-7-carboxamide trifluoroacetate] | 261 | – | – | – | – | –
O=C(c1ccco1)C1CC2CNCC(C2)C1 (stereo not shown) [2-furanyl(3-azabicyclo[3.3.1]non-7-yl)methanone] | 113 | – | – | > 10000 | – | –
COC(=O)C1=CC2CNCC2C1.Cl (stereo not shown) [methyl 3-azabicyclo[3.3.0]-oct-6-ene-7-carboxylate hydrochloride] | 2 | – | 5 | – | – | –
CC(C)OCC(=O)C1C[C@H]2CNC[C@H]2C1.O=C(O)C(F)(F)F (mixture of isomers) [1-(3-Azabicyclo[3.3.0]oct-7-yl)-2-isopropoxy-1-ethanone trifluoroacetate] | 261 | – | 427 | – | – | –
O=C(OC1CCC1)C1C[C@H]2CNC[C@H]2C1 (mixture of isomers) [cyclobutyl 3-azabicyclo[3.3.0]octane-7-carboxylate] | 80.6 | – | – | > 10000 | – | –
COCC(=O)C1C[C@H]2CNC[C@H]2C1.O=C(O)C(F)(F)F (mixture of isomers) [1-(3-azabicyclo[3.3.0]oct-7-yl)-2-methoxy-1-ethanone trifluoroacetate] | 31 | – | 32 | – | – | –
O=C(CF)C1CC2CNCC2C1 (single isomer, unassigned; isomer 1) [1-(3-azabicyclo[3.3.0]oct-7-yl)-2-fluoro-1-ethanone trifluoroacetate cis isomer, 1-(3-azabicyclo[3.3.0]oct-7-yl)-2-fluoro-1-ethanone trifluoroacetate] | 6.3 | – | 6.8 | – | – | –
